Laboratory results taken from patent publication US20240316014A1, “METHOD FOR TREATING DEMYELINATING CONDITIONS” (ACADEMIA SINICA, priority 2023, published 2024).
Where two headings read alike, the source gives them in different places.

Assays:
[1] = test system: cuprizone-induced demyelination; conditions: cited from earlier work
[2] = test system: human primary fibroblasts (CRL2097); experiment: Immunofluorescence staining of oligodendrocyte-specific markers in chemically treated fibroblasts; assay type: cell-based; conditions: compared to the solvent control group (FIG. 1B)
Procedure: Cells (1×10^4 per well) were plated on 24-well plates. Cells were cultured in HG-DMEM (Life Technologies) supplemented with 10% fetal bovine serum (FBS) (Hyclone) for 2 days. Then the medium was replaced with DMEM/F12 (Gibco) with 1% N2 supplement, 1% B27 supplement (all from Life Technologies), 20 ng/ml Platelet-Derived Growth Factor AA (PDGF-AA), 20 ng/ml Epidermal Growth Factor (EGF), 20 ng/mL Basic Fibroblast Growth Factor (bFGF), 20 ng/ml Neurotrophin-3 (NT3) (all from Peprotech). Then the cells were treated with 3 mM valproic acid (Tocris) for 2 days, 10 μM Y27632 (LC Laboratories), 10 μM SU9516 (R&D Systems), and 10 μM Forskolin (FSK) (Tocris) for 1 day. The reagent is listed in supplementary Table S1 and Table S2. Cells were fixed with 4% formaldehyde for 15 minutes at room temperature, and washed once with 1×Phosphate Buffered Saline (PBS). Cells were permeabilized with 0.3% Triton X-100 for 5 minutes, washed twice with 1×PBS, and blocked in 2% Bovine Serum Albumin (BSA) in PBS for 30 minutes. […] Fluorescence was analyzed using a fluorescence microscope (Axiovert 200 M, Zeiss).

[3] = test system: human primary fibroblasts (CRL2097); experiment: Morphology screening for conversion of fibroblasts into oligodendrocyte-like cells; assay type: cell-based; conditions: for morphological changes in fibroblasts (dendritic and dome-shaped): human fibroblasts CRL2097, phase-contrast, vs solvent control (FIG. 1A)
Procedure: The human normal foreskin skin fibroblast primary cells (CRL-2097) were obtained from the ATCC. CRL-2097 cells were cultured at 37° C. with 5% CO2 in high glucose Dulbecco's Modified Eagle's Medium (HG-DMEM) (Life Technologies) supplemented with 10% fetal bovine serum (FBS) (Hyclone). Cell viability was determined by trypan blue staining. All of the cultures were free of mycoplasma. This study was approved by the Academia Sinica ethics committee (IRB number: AS-IRB-BM-17008, AS-IRB-BM-20038). Cells (1×10^4 per well) were plated on 24-well plates. Cells were cultured in HG-DMEM (Life Technologies) supplemented with 10% fetal bovine serum (FBS) (Hyclone) for 2 days. Then the medium was replaced with DMEM/F12 (Gibco) with 1% N2 supplement, 1% B27 supplement (all from Life Technologies), 20 ng/ml Platelet-Derived Growth Factor AA (PDGF-AA), 20 ng/ml Epidermal Growth Factor (EGF), 20 ng/mL Basic Fibroblast Growth Factor (bFGF), 20 ng/ml Neurotrophin-3 (NT3) (all from Peprotech). Then the cells were treated with 3 mM valproic acid (Tocris) for 2 days, 10 μM Y27632 (LC Laboratories), 10 μM SU9516 (R&D Systems), and 10 μM Forskolin (FSK) (Tocris) for 1 day. The reagent is listed in supplementary Table S1 and Table S2. To find out which chemicals could convert fibroblasts into oligodendrocyte-like cells, we screened chemically-treated cells based on morphological changes that included the formation of a dendritic morphology of neural lineage cells and the dome-shaped morphology of the cell bodies of oligodendrocytes. In a preliminary screen, two chemicals, Y27632 and SU9516, were identified that may be involved in triggering the generation of oligodendrocyte-like cells from human primary fibroblasts (CRL2097). […] To characterize the induced oligodendrocyte-like cells, we performed immunofluorescence staining to analyze the expression of oligodendrocyte-specific markers. […] Next, to optimize the two-chemical cocktail, we performed an additional high-throughput screen using a chemical library of over 1,500 molecules purchased from Selleckchem®. […]

Row | SMILES | expression of oligodendrocyte-specific marker 4 (O4) by immunofluorescence [2] | morphological changes in fibroblasts (dendritic and dome-shaped) [3] | other results
1 | CNC(=O)c1cc(Oc2ccc3nc(N[C@@H]4CCCC[C@H]4O)sc3c2)ccn1 [BLZ945] | – | – | remyelination ([1]; 5-week cuprizone-induced model, ref [34]): enhances remyelination
2 | CC(C)(C)[C@]1(O)CC2OC(=O)CC23C(=O)OC2OC(=O)[C@H](O)C231 (some centres unmarked) [Bilobalide] | – | – | remyelination ([1]; cuprizone-induced 6-week model, ref [36]): promote remyelination
3 | COc1ccc2c(c1)c(CC(=O)O)c(C)n2C(=O)c1ccc(Cl)cc1 [Indomethacin] | – | – | remyelination ([1]; 10-week cuprizone-induced demyelination model, ref [33]): promote remyelination
4 | COc1ccc2c(c1)/C(=C/c1cnc[nH]1)C(=O)N2 [SU9516, (Z)-3-((1H-imidazol-5-yl)methylene)-5-methoxyindolin-2-one] | higher 04 expression | induced morphological changes | –
5 | CCCC(CCC)C(=O)O [VPA, valproic acid] | – | – | conversion efficiency, VPA pretreatment vs co-treatment with YSF ([3]; VPA 2 days then YSF 1 day, or VPA co-treated with YSF 1 day (FIG. 1D)): only pretreatment could improve the conversion efficiency
6 | C[C@@H](N)[C@H]1CC[C@H](C(=O)Nc2ccncc2)CC1 [Y27632, Trans-4-[(1R)-1-Aminoethyl]-N-(4-pyridinyl)cyclohexanecarboxamide] | higher 04 expression | induced morphological changes | –
